Where two headings read alike, the source gives them in different places.
Legend:
[1] = test system: patients with advanced solid tumors; details: in vivo
[2] = in vivo
clinical = details: human, in vivo; for Cmax: 150 mg; for AUC(0-t): AUC0–last
IGF1R = IGF1R (Homo sapiens, UniProt P08069); experiment: Phosphorylation of IGF1R in PBMCs; assay type: in vivo
[3] = cited from earlier work
adrenocortical carcinoma = details: cited from earlier work
metastatic CRC = details: combined with everolimus; cited from earlier work
[4] = test system: patients with solid tumors; details: cited from earlier work; for antitumor activity as monotherapy: single agent, solid tumors
advanced NSCLC = details: cited from earlier work

Sequence of IGF1R (P08069 31-1367): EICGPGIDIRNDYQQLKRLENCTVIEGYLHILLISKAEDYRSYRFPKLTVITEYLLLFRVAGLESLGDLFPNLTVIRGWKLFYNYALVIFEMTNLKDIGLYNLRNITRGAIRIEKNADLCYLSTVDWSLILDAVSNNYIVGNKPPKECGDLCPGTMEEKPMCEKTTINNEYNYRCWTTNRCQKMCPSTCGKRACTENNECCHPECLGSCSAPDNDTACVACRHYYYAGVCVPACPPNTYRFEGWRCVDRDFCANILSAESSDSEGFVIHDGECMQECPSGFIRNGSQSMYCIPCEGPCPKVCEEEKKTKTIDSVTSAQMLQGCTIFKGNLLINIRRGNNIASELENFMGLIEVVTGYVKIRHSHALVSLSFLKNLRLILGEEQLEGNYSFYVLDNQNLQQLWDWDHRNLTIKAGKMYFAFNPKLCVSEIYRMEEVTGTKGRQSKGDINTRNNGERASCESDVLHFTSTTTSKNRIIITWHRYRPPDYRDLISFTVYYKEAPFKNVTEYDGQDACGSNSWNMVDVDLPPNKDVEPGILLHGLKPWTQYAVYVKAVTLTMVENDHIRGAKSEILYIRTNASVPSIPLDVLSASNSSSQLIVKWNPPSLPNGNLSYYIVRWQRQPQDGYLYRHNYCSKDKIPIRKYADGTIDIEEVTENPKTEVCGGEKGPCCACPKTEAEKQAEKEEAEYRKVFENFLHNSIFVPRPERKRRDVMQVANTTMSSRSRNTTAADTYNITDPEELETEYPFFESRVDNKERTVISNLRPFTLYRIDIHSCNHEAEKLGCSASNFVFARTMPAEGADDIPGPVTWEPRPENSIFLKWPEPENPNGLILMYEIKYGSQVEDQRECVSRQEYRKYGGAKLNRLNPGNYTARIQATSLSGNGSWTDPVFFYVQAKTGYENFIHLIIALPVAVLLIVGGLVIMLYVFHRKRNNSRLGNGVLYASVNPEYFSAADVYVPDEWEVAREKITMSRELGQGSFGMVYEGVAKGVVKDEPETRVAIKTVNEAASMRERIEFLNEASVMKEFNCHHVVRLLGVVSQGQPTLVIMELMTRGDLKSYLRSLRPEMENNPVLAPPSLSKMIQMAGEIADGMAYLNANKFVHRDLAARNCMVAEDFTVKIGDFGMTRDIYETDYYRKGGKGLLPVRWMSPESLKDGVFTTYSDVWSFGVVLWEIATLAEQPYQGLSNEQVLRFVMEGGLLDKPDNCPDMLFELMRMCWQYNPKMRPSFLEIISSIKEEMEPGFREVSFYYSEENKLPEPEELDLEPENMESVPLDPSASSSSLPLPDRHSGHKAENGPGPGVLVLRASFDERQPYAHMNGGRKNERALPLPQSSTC

C#Cc1cccc(Nc2ncnc3cc(OCCOC)c(OCCOC)cc23)c1 [erlotinib, Erlotinib, reference compound]
Erlotinib-related AE: diarrhea ([1]; human): 26%
Erlotinib-related AE: drug eruption ([1]; human): 74%
Erlotinib-related AE: dry skin ([1]; human): 26%
Erlotinib-related AE: pruritus ([1]; human): 26%
Erlotinib-related AEs ([1]; human): 84 % of patients
patients discontinuing for an event related only to the named treatment ([1]; human): 3 patients
Tmax ([2]; human): 4.1 (1.9–8.4) h
Cmax (clinical): 1280 ng/mL
AUC(0-t) (clinical): 21100 ng·h/mL
Tmax (clinical): 4.1 h

C[C@]1(O)C[C@@H](c2nc(-c3ccc4ccc(-c5ccccc5)nc4c3)c3c(N)nccn32)C1 [linsitinib, Linsitinib]
IGF1R phosphorylation in PBMCs (IGF1R; 2 to 24 hours after the first dose, 7 cases, S1–S3): substantially inhibited
IGF1R phosphorylation in PBMCs (IGF1R; later time points, intermittent S1 schedule): fluctuating receptor inhibition
IGF1R phosphorylation in PBMCs (IGF1R; later time points, ≥300 mg linsitinib daily in S2 and S3): persisting receptor inhibition
Linsitinib-related hyperglycemia at grade 2 ([1]; human): 2
Linsitinib-related hyperglycemia at grade 3 ([1]; human): 3 cases
Treatment-related SAEs ([1]; human): 10 of 40 (25%) patients (%)
linsitinib-related AE: fatigue ([1]; human): 12%
linsitinib-related AE: nausea ([1]; human): 11%
linsitinib-related AE: prolonged QTc interval ([1]; human): 8%
linsitinib-related AE: vomiting ([1]; human): 8%
patients discontinuing for an event related only to the named treatment ([1]; human): 1 patients
thrombocytopenia and neutropenia [1]: not observed
Cmax and AUC from time zero to infinity versus dose [2]: increased in a dose-proportional manner
drug–drug interaction (pharmacokinetic) [2]: no significant drug–drug interaction effect
plasma level associated with preclinical activity [3]: ~ 1 μmol/L
overall survival versus placebo arm (adrenocortical carcinoma): no difference in overall survival
patients with durable PR (adrenocortical carcinoma; linsitinib arm): 3 of 90
clinical activity (metastatic CRC): no evidence of clinical activity
concentration at 24 h (clinical): ≤ 400 ng/mL
Cmax (clinical): 2580 ng/mL
AUC(0-t) (clinical): 17900 ng·h/mL
Tmax (clinical): 3 h
QTc prolongation versus peak concentrations of linsitinib ([4]; another study, 600 mg dose, ref unpublished data): associated with peak concentrations
half-life [4]: 5 h
monotherapy MTD ([4]; continuous once daily dosing): 400 mg
monotherapy MTD ([4]; intermittent dosing): 600 mg
antitumor activity as monotherapy [4]: partial responses (PR) in melanoma and adrenocortical carcinoma
antitumor activity as monotherapy ([4]; listed as Linsitinib): induced partial responses in adrenocortical carcinoma and melanoma
monotherapy RP2D ([4]; twice daily, continuous): 150 mg

R1507: IGF1R antibody, evaluated with erlotinib in NSCLC
12-week progression-free survival rate (advanced NSCLC; R1507 with erlotinib, patients with KRAS-mutant tumors): 36%
progression-free or overall survival versus erlotinib alone (advanced NSCLC; R1507 with erlotinib, unselected patients): no progression-free survival or overall survival advantage
tolerability (advanced NSCLC; in vivo): tolerable

— publication PMC5500904 (Clinical cancer research : an official journal of the …, 2016)
